Laboratory results taken from patent publication US10750743B2, “Pyridazinone herbicides” (E.I. DU PONT DE NEMOURS AND COMPANY, priority 2015, dated 2020).

Key:
Format in all cases: in vivo
rice (Oryza sativa) = assay: Test B flooded paddy test, visual rating; details: Flood, 250 g ai/ha, applied to paddy water, rated after 13 to 15 d
Summary of the method: (§1)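 Plants at the 2-leaf stage were flooded to 3 cm above soil, and test compounds were applied directly into the paddy water, which was held at that depth throughout. After 13 to 15 d in a greenhouse, injury was rated visually against untreated controls on a 0–100 scale (0 no effect, 100 complete control).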

[1] = test system: ducksalad (Heteranthera limosa); assay: Test B flooded paddy test, visual rating; details: Flood, 250 g ai/ha, applied to paddy water, rated after 13 to 15 d
Summary of the method: as §1

[2] = test system: barnyardgrass (Echinochloa crus-galli); assay: Test B flooded paddy test, visual rating; details: Flood, 250 g ai/ha, applied to paddy water, rated after 13 to 15 d
Summary of the method: as §1

[3] = test system: sedge, umbrella (small-flower umbrella sedge, Cyperus difformis); assay: Test B flooded paddy test, visual rating; details: Flood, 250 g ai/ha, applied to paddy water, rated after 13 to 15 d
Summary of the method: as §1

[4] = test system: barnyardgrass (Echinochloa crus-galli); assay: Test A preemergence, directed soil spray, visual injury rating; details: 0 is no effect, 100 is complete control
Summary of the method: (§2)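 Seeds sown in a loam soil–sand blend received a directed preemergence soil spray of test chemical in a non-phytotoxic solvent mixture with surfactant. Postemergence plants were sprayed at 2 to 10 cm, one- to two-leaf stage. After approximately 10 d in greenhouse, injury was visually rated 0 (no effect) to 100 (complete control) against untreated controls.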

[5] = test system: ryegrass, It. (Italian ryegrass, Lolium multiflorum); assay: as above; details: 0 is no effect, 100 is complete control
Summary of the method: as §2

kochia (Kochia scoparia) [6] = assay: as above; details: 0 is no effect, 100 is complete control
Summary of the method: as §2

[7] = test system: pigweed (Amaranthus retroflexus); assay: as above; details: 0 is no effect, 100 is complete control
Summary of the method: as §2

[8] = test system: ragweed (common ragweed, Ambrosia elatior); assay: as above; details: 0 is no effect, 100 is complete control
Summary of the method: as §2

[9] = test system: foxtail, giant (giant foxtail, Setaria faberii); assay: as above; details: 0 is no effect, 100 is complete control
Summary of the method: as §2

[10] = test system: barnyardgrass (Echinochloa crus-galli); assay: Test A postemergence application, visual injury rating; details: 0 to 100 scale, 0 no effect, 100 complete control
Summary of the method: as §2

[11] = test system: galium (catchweed bedstraw, Galium aparine); assay: as above; details: for Plant response rating (0 to 100 scale), Galium: 31 g ai/ha, 0 is no effect, 100 is complete control; for Galium plant response rating: 125 g ai/ha, 0 to 100 scale, 0 no effect, 100 complete control
Summary of the method: as §2

[12] = test system: wheat (Triticum aestivum); assay: as above; details: for Plant response rating (0 to 100 scale), Wheat: 31 g ai/ha, 0 is no effect, 100 is complete control; for Wheat plant response rating: 125 g ai/ha, 0 to 100 scale, 0 no effect, 100 complete control
Summary of the method: as §2

[13] = test system: ryegrass, It. (Italian ryegrass, Lolium multiflorum); assay: as above; details: for Plant response rating (0 to 100 scale), Ryegrass, It.: 31 g ai/ha, 0 is no effect, 100 is complete control; for Ryegrass, It. plant response rating: 125 g ai/ha, 0 to 100 scale, 0 no effect, 100 complete control
Summary of the method: as §2

[14] = test system: blackgrass (Alopecurus myosuroides); assay: as above; details: 0 to 100 scale, 0 no effect, 100 complete control
Summary of the method: as §2

kochia (Kochia scoparia) [15] = assay: as above; details: for Plant response rating (0 to 100 scale), Kochia: 31 g ai/ha, 0 is no effect, 100 is complete control; for Kochia plant response rating: 125 g ai/ha, 0 to 100 scale, 0 no effect, 100 complete control
Summary of the method: as §2

corn (Zea mays) = assay: as above; details: for Plant response rating (0 to 100 scale), Corn: 31 g ai/ha, 0 is no effect, 100 is complete control; for Corn plant response rating: 125 g ai/ha, 0 to 100 scale, 0 no effect, 100 complete control
Summary of the method: as §2

[16] = test system: pigweed (Amaranthus retroflexus); assay: as above; details: for Plant response rating (0 to 100 scale), Pigweed: 31 g ai/ha, 0 is no effect, 100 is complete control; for Pigweed plant response rating: 125 g ai/ha, 0 to 100 scale, 0 no effect, 100 complete control
Summary of the method: as §2

[17] = test system: ragweed (common ragweed, Ambrosia elatior); assay: as above; details: for Plant response rating (0 to 100 scale), Ragweed: 31 g ai/ha, 0 is no effect, 100 is complete control; for Ragweed plant response rating: 125 g ai/ha, 0 to 100 scale, 0 no effect, 100 complete control
Summary of the method: as §2

[18] = test system: foxtail, giant (giant foxtail, Setaria faberii); assay: as above; details: for Plant response rating (0 to 100 scale), Foxtail, Giant: 31 g ai/ha, 0 is no effect, 100 is complete control; for Foxtail, Giant plant response rating: 125 g ai/ha, 0 to 100 scale, 0 no effect, 100 complete control
Summary of the method: as §2

Row | SMILES | Rice plant response rating (0 to 100 scale, 0 is no effect, 100 is complete control) (rice (Oryza sativa)) | Ducksalad plant response rating (0 to 100 scale, 0 is no effect, 100 is complete control) [1] | Barnyardgrass plant response rating (0 to 100 scale, 0 is no effect, 100 is complete control) [2] | Sedge, Umbrella plant response rating (0 to 100 scale, 0 is no effect, 100 is complete control) [3] | Plant response rating (0 to 100 scale), Barnyardgrass ([4]; 31 g ai/ha) | Plant response rating (0 to 100 scale), Barnyardgrass ([4]; 125 g ai/ha) | Plant response rating (0 to 100 scale), Ryegrass, It. ([5]; 31 g ai/ha) | Plant response rating (0 to 100 scale), Ryegrass, It. ([5]; 125 g ai/ha) | Plant response rating (0 to 100 scale), Kochia (kochia (Kochia scoparia) [6]; 31 g ai/ha) | Plant response rating (0 to 100 scale), Kochia (kochia (Kochia scoparia) [6]; 125 g ai/ha) | Plant response rating (0 to 100 scale), Pigweed ([7]; 31 g ai/ha) | Plant response rating (0 to 100 scale), Pigweed ([7]; 125 g ai/ha) | Plant response rating (0 to 100 scale), Ragweed ([8]; 31 g ai/ha) | Plant response rating (0 to 100 scale), Ragweed ([8]; 125 g ai/ha) | Plant response rating (0 to 100 scale), Foxtail, Giant ([9]; 31 g ai/ha) | Plant response rating (0 to 100 scale), Foxtail, Giant ([9]; 125 g ai/ha) | Barnyardgrass plant response rating ([10]; 31 g ai/ha) | Barnyardgrass plant response rating ([10]; 125 g ai/ha) | Plant response rating (0 to 100 scale), Galium [11] | Galium plant response rating [11] | other results
1 | CC(=O)Oc1c(C)nn(C)c(=O)c1-c1ccc(Cl)c2sccc12 [Compound 60] | 0 | 0 | 0 | 0 | 0 | 0 | 0 | 10 | 0 | 0 | 0 | 100 | 0 | 0 | 0 | 0 | 0 | 0 | 20 | 100 | Plant response rating (0 to 100 scale), Wheat [12]: 0; Wheat plant response rating [12]: 0; Plant response rating (0 to 100 scale), Ryegrass, It. [13]: 0; Ryegrass, It. plant response rating [13]: 10; Blackgrass plant response rating ([14]; 31 g ai/ha): 0; Blackgrass plant response rating ([14]; 125 g ai/ha): 0; Plant response rating (0 to 100 scale), Kochia (kochia (Kochia scoparia) [15]): 20; Kochia plant response rating (kochia (Kochia scoparia) [15]): 70; Plant response rating (0 to 100 scale), Corn (corn (Zea mays)): 0; Corn plant response rating (corn (Zea mays)): 0; Plant response rating (0 to 100 scale), Pigweed [16]: 0; Pigweed plant response rating [16]: 30; Plant response rating (0 to 100 scale), Ragweed [17]: 0; Ragweed plant response rating [17]: 0; Plant response rating (0 to 100 scale), Foxtail, Giant [18]: 0; Foxtail, Giant plant response rating [18]: 0
2 | Cc1nn(C)c(=O)c(-c2ccc(Cl)c3sccc23)c1O [Compound 63] | 0 | 0 | 0 | 0 | 0 | 0 | 0 | 20 | 10 | 20 | 0 | 0 | 0 | 0 | 0 | 0 | 0 | 0 | 30 | 90 | Plant response rating (0 to 100 scale), Wheat [12]: 0; Wheat plant response rating [12]: 0; Plant response rating (0 to 100 scale), Ryegrass, It. [13]: 0; Ryegrass, It. plant response rating [13]: 10; Blackgrass plant response rating ([14]; 31 g ai/ha): 0; Blackgrass plant response rating ([14]; 125 g ai/ha): 0; Plant response rating (0 to 100 scale), Kochia (kochia (Kochia scoparia) [15]): 0; Kochia plant response rating (kochia (Kochia scoparia) [15]): 60; Plant response rating (0 to 100 scale), Corn (corn (Zea mays)): 0; Corn plant response rating (corn (Zea mays)): 0; Plant response rating (0 to 100 scale), Pigweed [16]: 0; Pigweed plant response rating [16]: 50; Plant response rating (0 to 100 scale), Ragweed [17]: 0; Ragweed plant response rating [17]: 0; Plant response rating (0 to 100 scale), Foxtail, Giant [18]: 0; Foxtail, Giant plant response rating [18]: 0
